Each block holds one compound with its values, some of them ahead of it.
Legend:
[1] = molecular target: T1, Serine/threonine-protein kinase D3 (Homo sapiens) (UniProt O94806); assay: Selectivity interaction (ActivX KiNativ screen (kinase selectivity in THP-1 cell lysates)) EUB0000639a PRKD3; format: subcellular; settings: lysate, at 1 µM
T1 sequence (whole entry): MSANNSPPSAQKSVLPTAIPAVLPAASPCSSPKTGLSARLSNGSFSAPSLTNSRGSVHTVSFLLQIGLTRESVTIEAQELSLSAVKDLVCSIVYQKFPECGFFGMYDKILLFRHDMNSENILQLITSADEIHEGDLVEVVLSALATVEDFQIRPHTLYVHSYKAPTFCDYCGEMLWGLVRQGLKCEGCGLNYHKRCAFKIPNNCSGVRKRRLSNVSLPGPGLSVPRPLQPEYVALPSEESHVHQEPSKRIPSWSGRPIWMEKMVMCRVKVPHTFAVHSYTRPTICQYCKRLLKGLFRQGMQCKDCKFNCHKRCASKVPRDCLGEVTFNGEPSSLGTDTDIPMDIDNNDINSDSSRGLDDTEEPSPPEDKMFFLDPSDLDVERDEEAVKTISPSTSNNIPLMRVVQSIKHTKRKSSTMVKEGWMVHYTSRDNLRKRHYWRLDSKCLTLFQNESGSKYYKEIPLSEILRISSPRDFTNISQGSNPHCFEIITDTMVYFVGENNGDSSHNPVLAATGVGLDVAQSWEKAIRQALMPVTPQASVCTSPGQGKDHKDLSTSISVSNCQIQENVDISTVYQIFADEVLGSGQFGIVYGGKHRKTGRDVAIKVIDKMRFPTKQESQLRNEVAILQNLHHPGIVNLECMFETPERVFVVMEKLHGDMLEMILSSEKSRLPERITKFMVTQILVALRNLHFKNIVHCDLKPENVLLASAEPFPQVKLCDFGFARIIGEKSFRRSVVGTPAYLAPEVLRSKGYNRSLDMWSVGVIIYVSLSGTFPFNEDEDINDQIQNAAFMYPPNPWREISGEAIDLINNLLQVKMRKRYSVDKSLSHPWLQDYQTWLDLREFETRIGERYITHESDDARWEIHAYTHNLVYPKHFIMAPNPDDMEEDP

[2] = molecular target: T2, cGMP-dependent protein kinase 2 (Homo sapiens) (UniProt Q13237); assay: Selectivity interaction (KinomeScan (DiscoverX)) EUB0000045b PRKG2
T2 sequence (whole entry): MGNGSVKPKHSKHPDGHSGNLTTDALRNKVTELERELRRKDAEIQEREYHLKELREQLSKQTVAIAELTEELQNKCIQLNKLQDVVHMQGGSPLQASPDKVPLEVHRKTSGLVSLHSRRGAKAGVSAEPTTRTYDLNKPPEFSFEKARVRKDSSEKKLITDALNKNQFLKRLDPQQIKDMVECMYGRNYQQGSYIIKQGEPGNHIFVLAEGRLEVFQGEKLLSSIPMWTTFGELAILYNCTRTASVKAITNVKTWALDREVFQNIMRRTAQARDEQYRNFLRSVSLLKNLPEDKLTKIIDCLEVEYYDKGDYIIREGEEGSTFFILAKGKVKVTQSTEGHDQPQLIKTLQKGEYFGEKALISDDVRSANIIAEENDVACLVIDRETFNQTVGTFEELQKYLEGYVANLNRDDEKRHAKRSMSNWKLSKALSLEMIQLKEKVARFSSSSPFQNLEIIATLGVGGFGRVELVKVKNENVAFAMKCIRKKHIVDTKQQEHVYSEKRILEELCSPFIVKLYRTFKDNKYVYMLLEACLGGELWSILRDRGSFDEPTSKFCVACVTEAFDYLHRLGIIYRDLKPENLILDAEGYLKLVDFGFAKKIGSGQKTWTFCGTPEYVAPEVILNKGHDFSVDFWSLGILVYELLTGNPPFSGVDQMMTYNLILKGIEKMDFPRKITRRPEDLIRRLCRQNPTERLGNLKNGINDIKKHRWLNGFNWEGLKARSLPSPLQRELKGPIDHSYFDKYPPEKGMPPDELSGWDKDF

[3] = molecular target: SRSF protein kinase 1 (Homo sapiens, UniProt Q96SB4); assay: Selectivity interaction (KinomeScan (DiscoverX)) EUB0000607a SRPK1; settings: at 10 µM
[4] = molecular target: T3, Serine/threonine-protein kinase LATS2 (Homo sapiens) (UniProt Q9NRM7); assay: Selectivity interaction (KinomeScan (DiscoverX)) EUB0000666a LATS2; settings: at 10 µM
T3 sequence (whole entry): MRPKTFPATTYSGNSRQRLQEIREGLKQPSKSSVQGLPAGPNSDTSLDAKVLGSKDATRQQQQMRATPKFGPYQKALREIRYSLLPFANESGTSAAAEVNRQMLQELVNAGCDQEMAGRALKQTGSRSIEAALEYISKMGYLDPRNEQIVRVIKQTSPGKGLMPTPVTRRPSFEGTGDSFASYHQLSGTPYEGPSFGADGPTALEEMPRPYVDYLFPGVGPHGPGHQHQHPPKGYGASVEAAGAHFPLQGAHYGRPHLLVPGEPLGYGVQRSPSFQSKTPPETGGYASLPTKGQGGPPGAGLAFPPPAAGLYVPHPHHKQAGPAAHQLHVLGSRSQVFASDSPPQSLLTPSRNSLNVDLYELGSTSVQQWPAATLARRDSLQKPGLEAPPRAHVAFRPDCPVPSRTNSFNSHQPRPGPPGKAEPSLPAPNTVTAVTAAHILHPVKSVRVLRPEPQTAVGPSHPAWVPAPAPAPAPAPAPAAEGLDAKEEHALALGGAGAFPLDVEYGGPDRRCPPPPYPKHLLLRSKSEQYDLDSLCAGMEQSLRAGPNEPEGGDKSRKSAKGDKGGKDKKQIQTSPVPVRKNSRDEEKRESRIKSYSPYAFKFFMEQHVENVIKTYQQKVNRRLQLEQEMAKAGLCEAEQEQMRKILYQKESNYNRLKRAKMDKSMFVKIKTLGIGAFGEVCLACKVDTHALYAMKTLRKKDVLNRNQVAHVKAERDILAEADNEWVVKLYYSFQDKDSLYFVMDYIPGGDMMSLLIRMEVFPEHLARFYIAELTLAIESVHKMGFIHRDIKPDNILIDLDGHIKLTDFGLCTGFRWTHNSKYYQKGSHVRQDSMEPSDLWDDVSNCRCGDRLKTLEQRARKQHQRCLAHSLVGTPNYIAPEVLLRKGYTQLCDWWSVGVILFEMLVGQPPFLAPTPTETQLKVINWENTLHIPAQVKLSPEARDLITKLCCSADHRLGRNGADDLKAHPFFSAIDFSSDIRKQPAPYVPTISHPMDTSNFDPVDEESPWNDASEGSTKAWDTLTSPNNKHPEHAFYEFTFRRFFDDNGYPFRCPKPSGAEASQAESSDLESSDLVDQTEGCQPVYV

Sequence of SRSF protein kinase 1 (Q96SB4 whole entry): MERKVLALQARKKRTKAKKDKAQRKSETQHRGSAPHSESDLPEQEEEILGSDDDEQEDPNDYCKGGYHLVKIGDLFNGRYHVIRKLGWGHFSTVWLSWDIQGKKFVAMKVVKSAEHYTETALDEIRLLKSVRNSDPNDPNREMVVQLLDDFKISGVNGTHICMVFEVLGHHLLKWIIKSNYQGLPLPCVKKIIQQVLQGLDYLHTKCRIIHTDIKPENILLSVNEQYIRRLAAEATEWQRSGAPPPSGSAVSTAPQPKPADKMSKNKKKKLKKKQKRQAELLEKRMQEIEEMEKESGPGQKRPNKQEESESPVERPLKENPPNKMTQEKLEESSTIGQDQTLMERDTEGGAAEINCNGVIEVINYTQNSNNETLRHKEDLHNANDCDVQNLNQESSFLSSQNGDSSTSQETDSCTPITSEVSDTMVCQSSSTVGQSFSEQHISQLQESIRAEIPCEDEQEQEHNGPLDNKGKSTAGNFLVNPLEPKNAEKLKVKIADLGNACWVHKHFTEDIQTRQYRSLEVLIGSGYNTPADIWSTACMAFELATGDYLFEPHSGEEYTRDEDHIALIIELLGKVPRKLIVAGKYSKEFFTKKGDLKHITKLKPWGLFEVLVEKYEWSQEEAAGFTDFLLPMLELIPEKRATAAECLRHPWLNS

% of inhibition [1]: 1.2%
Structure (SMILES): CC[C@@H]1[C@H](F)C(=O)N[C@@H]1COc1nccc2cc(C(N)=O)c(OC)cc12 [ZIMLOVISERTIB]

Structure (SMILES): C=CC(=O)Nc1cc(-n2c(=O)ccc3cnc4ccc(-c5ccc(NS(C)(=O)=O)cc5)cc4c32)ccc1C
% of control ([2]; at 1 µM): 100% | % of control ([2]; at 10 µM): 95%

Structure (SMILES): CNC(=O)Nc1ccc(-c2nc(N3CC4CCC(C3)O4)c3cnn(C4CCC5(CC4)OCCO5)c3n2)cc1
% of control [3]: 100%

Structure (SMILES): O=C(NOC[C@H](O)CO)c1ccc(F)c(F)c1Nc1ccc(I)cc1F
% of control [4]: 74%

From ChEMBL document CHEMBL5465560, “Selectivity Literature for EUbOPEN Chemogenomic Library” (2024)
